Data from publication PMC6318274, “Lattice engineering enables definition of molecular features allowing for potent small-molecule inhibition of HIV-1 entry” (Nature Communications, 2019).
Where two headings read alike, the source gives them in different places.

Tested on: HIV-1 Env-pseudoviruses (208-strain panel)
Assay: microbe, parasite or virus in culture
Format: cell-based
Details: Human immunodeficiency virus 1, TZM-bl, read-out: IC50
Method: Neutralization was measured using single-round-of-infection HIV-1 Env-pseudoviruses and TZM-bl target cells (ARP Cat No. #8129)[44],[45]. Compounds were prepared at 400 μM with 4% DMSO (dimethyl sulfoxide) in PBS (phosphate-buffered saline) and diluted 20 times as the starting concentration for serial dilution in the neutralization assays. […] After incubation at 37 °C for 2 days, infection of target cells was measured by luciferase activity. Neutralization curves were fit by nonlinear regression using a five-parameter hill slope equation[45].

## COc1cnc(-c2csc(C(=O)NCCO)n2)c2[nH]cc(C(=O)C(=O)N3CCC(=C(C#N)c4ccccc4)CC3)c12 [BMS-818251]
CNE5, clade AE
  IC50: 465 nM
CNE7, clade BC
  IC50: 0.4 nM
CNE8, clade AE
  IC50: 2680 nM
CNE10 (Clade B)
  IC50: 0.1 nM
CNE12, clade B
  IC50: 2 nM
CNE14, clade B
  IC50: 1120 nM
CNE15, clade BC
  IC50: 0.1 nM
CNE19, clade BC
  IC50: 0.1 nM
CNE20 (Clade BC)
  IC50: 6 nM
CNE21, clade BC
  IC50: 0.3 nM
CNE30, clade C
  IC50: 0.2 nM
CNE31, clade C
  IC50: 1 nM
CNE40, clade BC
  IC50: 1 nM
CNE55, clade AE
  IC50: 282 nM
CNE56 (Clade AE)
  IC50: 797 nM
CNE57, clade B
  IC50: 0.3 nM
CNE58, clade C
  IC50: 0.2 nM
CNE59, clade AE
  IC50: 506 nM
Ce1176.A3, clade C
  IC50: 0.9 nM
DJ263.8 (Clade AG)
  IC50: 0.2 nM
DU123.06, clade C
  IC50: 0.3 nM
DU151.02, clade C
  IC50: 0.2 nM
DU156.12 (Clade C)
  IC50: 0.2 nM
DU172.17, clade C
  IC50: 0.1 nM
DU422.01, clade C
  IC50: 0.7 nM
HO86.8, clade B
  IC50: 4 nM
HT593.1, clade B
  IC50: 0.1 nM
JRFL.JB, clade B
  IC50: 0.1 nM
KER2008.12 (Clade A)
  IC50: 15 nM
KER2018.11, clade A
  IC50: 0.3 nM
KNH1209.18, clade A
  IC50: 0.4 nM
M02138, clade AE
  IC50: 28 nM
MB201.A1 (Clade A)
  IC50: 9 nM
MB539.2B7, clade A
  IC50: 2 nM
MI369.A5, clade A
  IC50: 0.3 nM
MN.3, clade B
  IC50: 0.6 nM
MS208.A1, clade A
  IC50: 0.3 nM
MW965.26, clade C
  IC50: 6 nM
NKU3006.ec1 (Clade D)
  IC50: 0.2 nM
P0402.c2.11 (Clade G)
  IC50: 0.2 nM
P1981.C5.3, clade G
  IC50: 0.5 nM
PVO.04 (Clade B)
  IC50: 0.4 nM
Q23.17, clade A
  IC50: 0.5 nM
Q168.a2, clade AD
  IC50: 3 nM
Q259.17, clade A
  IC50: 7 nM
Q461.e2, clade AD
  IC50: 0.3 nM
Q769.d22, clade A
  IC50: 1 nM
Q769.h5, clade A
  IC50: 2 nM
Q842.d12, clade A
  IC50: 0.4 nM
QH209.14M.A2, clade A
  IC50: 60 nM
QH0515.01, clade B
  IC50: 31 nM
QH0692.42, clade B
  IC50: 0.7 nM
R1166.c1, clade AE
  IC50: > 20000 nM
R2184.c4, clade AE
  IC50: 2040 nM
R3265.c6 (Clade AE)
  IC50: 122 nM
REJO.67 (Clade B)
  IC50: 590 nM
RHPA.7, clade B
  IC50: 0.5 nM
RW020.2, clade A
  IC50: 0.7 nM
SF162.LS, clade B
  IC50: 0.1 nM
SO18.18, clade C
  IC50: 0.2 nM
SS1196.01, clade B
  IC50: 579 nM
T33-7, clade AG
  IC50: 252 nM
T250-4, clade AG
  IC50: 0.4 nM
T251-18, clade AG
  IC50: 0.6 nM
T253-11 (Clade AG)
  IC50: 0.1 nM
T255-34, clade AG
  IC50: 2 nM
T257-31, clade AG
  IC50: 1 nM
T266-60, clade AG
  IC50: 42 nM
T278-50, clade AG
  IC50: 0.1 nM
T280-5 (Clade AG)
  IC50: 0.4 nM
TH023.6, clade AE
  IC50: > 20000 nM
TH966.8, clade AE
  IC50: 923 nM
TH976.17, clade AE
  IC50: 1280 nM
THRO.18, clade B
  IC50: 0.2 nM
TRJO.58, clade B
  IC50: 0.1 nM
TRO.11, clade B
  IC50: 127 nM
TV1.29, clade C
  IC50: 1 nM
TZA125.17, clade C
  IC50: 1 nM
TZBD.02, clade C
  IC50: 0.3 nM
UG021.16, clade D
  IC50: 0.2 nM
UG024.2, clade D
  IC50: > 20000 nM
UG037.8, clade A
  IC50: 10 nM
WITO.33, clade B
  IC50: 0.8 nM
X1254.c3, clade G
  IC50: 0.2 nM
X1632.S2.B10, clade G
  IC50: 0.3 nM
X2088.c9, clade G
  IC50: 0.3 nM
X2131.C1.B5, clade G
  IC50: 1 nM
X2278.C2.B6, clade B
  IC50: 440 nM
YU2.DG, clade B
  IC50: 0.5 nM
ZA012.29, clade C
  IC50: 0.5 nM
ZM53.12, clade C
  IC50: 0.4 nM
ZM55.28a, clade C
  IC50: 0.3 nM
ZM106.9 (Clade C)
  IC50: 2 nM
ZM109.4, clade C
  IC50: 0.1 nM
ZM135.10a, clade C
  IC50: 153 nM
ZM176.66, clade C
  IC50: 1 nM
ZM197.7, clade C
  IC50: 0.2 nM
ZM214.15, clade C
  IC50: 0.2 nM
ZM215.8, clade C
  IC50: 0.1 nM
ZM233.6, clade C
  IC50: 0.1 nM
ZM249.1, clade C
  IC50: 0.4 nM
[…], clade C
  IC50: 0.1 nM
[…], clade G
  IC50: 0.6 nM
